Measurements: ChEMBL document CHEMBL5338715, “Identification of (S)-1-(2-(2,4-difluorophenyl)-4-oxothiazolidin-3-yl)-3-(4-((7-(3-(4-ethylpiperazin-1-yl)propoxy)-6-methoxyquinolin-4-yl)oxy)-3,5-difluorophenyl)urea as a potential anti-colorectal cancer agent” (Eur J Med Chem, 2022)

Tested on: EBC-1
Assay: cells
Settings: Homo sapiens
With `CCN1CCN(CCCOc2cc3nccc(Oc4c(F)cc(NC(=O)NN5C(=O)CSC5c5ccc(F)cc5F)cc4F)c3cc2OC)CC1` (racemic) the IC50 was 150 nM. Work on `CCN1CCN(CCCOc2cc3nccc(Oc4c(F)cc(NC(=O)NN5C(=O)CSC5c5ccccc5F)cc4F)c3cc2OC)CC1` (configuration not stated) yielded an IC50 of 230 nM. `CCN1CCN(CCCOc2cc3nccc(Oc4c(F)cc(NC(=O)NN5C(=O)CSC5c5c(F)cccc5F)cc4F)c3cc2OC)CC1` (configuration not stated) gave an IC50 of 160 nM.

Tested on: not listed separately
Assay: Metabolic stability in human liver microsomes assessed as intrinsic clearance at 1 uM measured upto 45 mins in presence of NADPH by LC-MS/MS analysis
Assay type: ADME, Microsome
Settings: read-out: CLH
Work on `CCN1CCN(CCCOc2cc3nccc(Oc4c(F)cc(NC(=O)NN5C(=O)CSC5c5ccc(F)cc5F)cc4F)c3cc2OC)CC1` (racemic) yielded a CLint scaled at 1 µM of 10.7 mL/min/kg. Work on `CCN1CCN(CCCOc2cc3nccc(Oc4c(F)cc(NC(=O)NN5C(=O)CSC5c5ccccc5F)cc4F)c3cc2OC)CC1` (configuration not stated) yielded a CLint scaled at 1 µM of 13.3 mL/min/kg. Work on `CCN1CCN(CCCOc2cc3nccc(Oc4c(F)cc(NC(=O)NN5C(=O)CSC5c5c(F)cccc5F)cc4F)c3cc2OC)CC1` (configuration not stated) yielded a CLint scaled at 1 µM of 19.8 mL/min/kg. In the case of `C[C@]12CC[C@H]3[C@@H](CCC4=CC(=O)CC[C@@]43C)[C@@H]1CC[C@@H]2O` [TESTOSTERONE], the CLint scaled at 1 µM is reported as 164 mL/min/kg. Work on `O=c1ccc2ccc(O)cc2o1` [UMBELLIFERONE] yielded a CLint scaled at 1 µM of 289 mL/min/kg.

Tested on: BaF3
Assay: cells
Settings: Mus musculus, BaF3, 72 h
Work on `CCN(CC)CCCOc1cc2nccc(Oc3ccc(NC(=O)NN4C(=O)CSC4c4c(F)cccc4F)cc3C)c2cc1OC` (configuration not stated) yielded an IC50 of 460 nM. `CCN1CCN(CCCOc2cc3nccc(Oc4c(F)cc(NC(=O)NN5C(=O)CSC5c5ccc(F)cc5F)cc4F)c3cc2OC)CC1` (racemic) showed an IC50 of 57 nM. For `CCN1CCN(CCCOc2cc3nccc(Oc4c(F)cc(NC(=O)NN5C(=O)CSC5c5ccccc5F)cc4F)c3cc2OC)CC1` (configuration not stated), the IC50 was 53 nM. For `CCN1CCN(CCCOc2cc3nccc(Oc4c(F)cc(NC(=O)NN5C(=O)CSC5c5c(F)cccc5F)cc4F)c3cc2OC)CC1` (configuration not stated), the IC50 was 45 nM.

Tested on: not listed separately
Assay: cells
Settings: Homo sapiens, TT
Work on `CCN1CCN(CCCOc2cc3nccc(Oc4c(F)cc(NC(=O)NN5C(=O)CSC5c5ccc(F)cc5F)cc4F)c3cc2OC)CC1` (racemic) yielded an IC50 of 780 nM. With `CCN1CCN(CCCOc2cc3nccc(Oc4c(F)cc(NC(=O)NN5C(=O)CSC5c5c(F)cccc5F)cc4F)c3cc2OC)CC1` (configuration not stated) the IC50 was 2300 nM.

Biological target: T1, Proto-oncogene tyrosine-protein kinase receptor Ret (Homo sapiens, UniProt P07949)
T1 sequence (P07949 whole entry): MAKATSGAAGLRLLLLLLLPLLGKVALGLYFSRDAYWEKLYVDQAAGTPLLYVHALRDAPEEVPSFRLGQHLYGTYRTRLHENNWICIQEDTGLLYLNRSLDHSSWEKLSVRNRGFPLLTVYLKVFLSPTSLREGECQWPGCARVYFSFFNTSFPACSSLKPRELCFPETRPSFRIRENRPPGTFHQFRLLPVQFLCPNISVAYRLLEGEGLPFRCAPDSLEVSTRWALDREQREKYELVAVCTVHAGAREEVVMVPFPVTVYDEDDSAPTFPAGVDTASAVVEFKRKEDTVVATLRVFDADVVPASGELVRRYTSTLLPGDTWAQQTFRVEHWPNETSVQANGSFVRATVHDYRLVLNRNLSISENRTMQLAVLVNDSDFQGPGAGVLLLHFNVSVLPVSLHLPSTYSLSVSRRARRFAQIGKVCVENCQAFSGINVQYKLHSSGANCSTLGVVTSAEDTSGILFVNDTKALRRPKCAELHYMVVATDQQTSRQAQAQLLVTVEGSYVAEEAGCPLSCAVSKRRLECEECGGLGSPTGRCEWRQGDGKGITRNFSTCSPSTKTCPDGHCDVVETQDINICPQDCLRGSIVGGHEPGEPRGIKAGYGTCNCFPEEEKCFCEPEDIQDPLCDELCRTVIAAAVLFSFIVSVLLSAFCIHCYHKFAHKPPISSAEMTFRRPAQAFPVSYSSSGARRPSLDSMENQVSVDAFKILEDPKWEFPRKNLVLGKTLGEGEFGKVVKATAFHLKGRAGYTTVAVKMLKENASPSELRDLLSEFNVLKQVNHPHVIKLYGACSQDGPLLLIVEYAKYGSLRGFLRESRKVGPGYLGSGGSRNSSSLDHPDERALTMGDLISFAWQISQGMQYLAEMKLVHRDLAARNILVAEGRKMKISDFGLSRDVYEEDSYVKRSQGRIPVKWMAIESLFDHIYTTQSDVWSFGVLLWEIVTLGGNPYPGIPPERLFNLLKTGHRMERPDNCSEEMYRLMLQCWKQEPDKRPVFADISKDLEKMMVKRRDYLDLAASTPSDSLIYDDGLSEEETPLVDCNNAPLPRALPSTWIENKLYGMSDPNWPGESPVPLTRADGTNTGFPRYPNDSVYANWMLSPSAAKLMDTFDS
Assay: Inhibition of RET (unknown origin) by kinome scan assay
Settings: not given
`CCN1CCN(CCCOc2cc3nccc(Oc4c(F)cc(NC(=O)NN5C(=O)CSC5c5ccc(F)cc5F)cc4F)c3cc2OC)CC1` (racemic) showed an IC50 of 27.9 nM.

Biological target: Platelet-derived growth factor receptor beta (Homo sapiens) (UniProt P09619)
Sequence (P09619 whole entry): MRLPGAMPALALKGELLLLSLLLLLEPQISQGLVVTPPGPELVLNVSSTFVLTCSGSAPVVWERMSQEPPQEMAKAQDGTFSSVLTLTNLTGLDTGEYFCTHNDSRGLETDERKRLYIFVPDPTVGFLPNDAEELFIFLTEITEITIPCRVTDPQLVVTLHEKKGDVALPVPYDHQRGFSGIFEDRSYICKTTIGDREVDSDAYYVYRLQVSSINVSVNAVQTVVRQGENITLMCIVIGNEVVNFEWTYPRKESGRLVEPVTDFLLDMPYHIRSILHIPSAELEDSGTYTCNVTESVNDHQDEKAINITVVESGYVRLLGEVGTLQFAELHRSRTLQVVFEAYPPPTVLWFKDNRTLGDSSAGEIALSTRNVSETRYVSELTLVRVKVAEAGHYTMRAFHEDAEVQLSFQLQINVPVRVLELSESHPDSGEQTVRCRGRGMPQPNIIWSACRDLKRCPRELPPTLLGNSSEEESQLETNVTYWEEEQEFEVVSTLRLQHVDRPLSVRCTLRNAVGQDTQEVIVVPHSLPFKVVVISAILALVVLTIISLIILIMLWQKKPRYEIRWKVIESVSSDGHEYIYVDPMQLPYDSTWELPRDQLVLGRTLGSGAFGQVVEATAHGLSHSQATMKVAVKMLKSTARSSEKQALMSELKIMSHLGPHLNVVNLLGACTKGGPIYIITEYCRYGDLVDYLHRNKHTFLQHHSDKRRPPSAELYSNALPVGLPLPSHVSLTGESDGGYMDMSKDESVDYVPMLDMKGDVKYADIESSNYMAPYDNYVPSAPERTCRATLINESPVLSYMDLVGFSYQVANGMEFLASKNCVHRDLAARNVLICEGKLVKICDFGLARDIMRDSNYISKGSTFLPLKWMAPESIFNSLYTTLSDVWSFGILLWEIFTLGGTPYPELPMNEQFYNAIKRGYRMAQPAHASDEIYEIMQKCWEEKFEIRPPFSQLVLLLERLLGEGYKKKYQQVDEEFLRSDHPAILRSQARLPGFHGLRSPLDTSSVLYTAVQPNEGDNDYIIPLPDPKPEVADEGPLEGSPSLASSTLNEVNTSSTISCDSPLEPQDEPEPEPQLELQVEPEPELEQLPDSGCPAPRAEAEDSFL
Assay: Inhibition of PDGFRbeta (unknown origin) assessed as residual activity at 1 uM by kinome scan assay relative to control
Settings: not given
`CCN1CCN(CCCOc2cc3nccc(Oc4c(F)cc(NC(=O)NN5C(=O)CSC5c5ccc(F)cc5F)cc4F)c3cc2OC)CC1` (racemic) showed an Activity of 0.1%.

Tested on: not listed separately
Assay: Metabolic stability in human liver microsomes assessed as half life at 1 uM measured upto 45 mins in presence of NADPH by LC-MS/MS analysis
Assay type: ADME, Microsome
Settings: not given
`CCN1CCN(CCCOc2cc3nccc(Oc4c(F)cc(NC(=O)NN5C(=O)CSC5c5ccc(F)cc5F)cc4F)c3cc2OC)CC1` (racemic) showed a half-life at 1 µM of 2.7 h. Work on `CCN1CCN(CCCOc2cc3nccc(Oc4c(F)cc(NC(=O)NN5C(=O)CSC5c5ccccc5F)cc4F)c3cc2OC)CC1` (configuration not stated) yielded a half-life at 1 µM of 2.17 h. `CCN1CCN(CCCOc2cc3nccc(Oc4c(F)cc(NC(=O)NN5C(=O)CSC5c5c(F)cccc5F)cc4F)c3cc2OC)CC1` (configuration not stated) gave a half-life at 1 µM of 1.47 h. For `C[C@]12CC[C@H]3[C@@H](CCC4=CC(=O)CC[C@@]43C)[C@@H]1CC[C@@H]2O` [TESTOSTERONE], the half-life at 1 µM was 0.177 h. With `O=c1ccc2ccc(O)cc2o1` [UMBELLIFERONE] the half-life at 1 µM was 0.1 h.

Tested on: not listed separately
Assay: Cytotoxicity against human FHC cells assessed as cell growth inhibition by MTT assay
Assay type: toxicity, cell-based
Settings: not given
For `CCN1CCN(CCCOc2cc3nccc(Oc4c(F)cc(NC(=O)NN5C(=O)CSC5c5ccc(F)cc5F)cc4F)c3cc2OC)CC1` (racemic), the IC50 was 4200 nM. With `CCN1CCN(CCCOc2cc3nccc(Oc4c(F)cc(NC(=O)NN5C(=O)CSC5c5ccccc5F)cc4F)c3cc2OC)CC1` (configuration not stated) the IC50 was greater than 10000 nM. Work on `CCN1CCN(CCCOc2cc3nccc(Oc4c(F)cc(NC(=O)NN5C(=O)CSC5c5c(F)cccc5F)cc4F)c3cc2OC)CC1` (configuration not stated) yielded an IC50 greater than 10000 nM.

Biological target: T1, Proto-oncogene tyrosine-protein kinase receptor Ret
Assay: Inhibition of RET (unknown origin) assessed as residual activity at 1 uM by kinome scan assay relative to control
Settings: not given
With `CCN1CCN(CCCOc2cc3nccc(Oc4c(F)cc(NC(=O)NN5C(=O)CSC5c5ccc(F)cc5F)cc4F)c3cc2OC)CC1` (racemic) the Activity was 0.25%.

Tested on: MKN-45
Assay: cells
Settings: Homo sapiens
Compound `CCN1CCN(CCCOc2cc3nccc(Oc4c(F)cc(NC(=O)NN5C(=O)CSC5c5ccc(F)cc5F)cc4F)c3cc2OC)CC1` (racemic) has an IC50 of 380 nM. `CCN1CCN(CCCOc2cc3nccc(Oc4c(F)cc(NC(=O)NN5C(=O)CSC5c5ccccc5F)cc4F)c3cc2OC)CC1` (configuration not stated) showed an IC50 of 2300 nM. `CCN1CCN(CCCOc2cc3nccc(Oc4c(F)cc(NC(=O)NN5C(=O)CSC5c5c(F)cccc5F)cc4F)c3cc2OC)CC1` (configuration not stated) showed an IC50 of 610 nM.

Tested on: SNU-5
Assay: cells
Settings: Homo sapiens
Work on `CCN1CCN(CCCOc2cc3nccc(Oc4c(F)cc(NC(=O)NN5C(=O)CSC5c5ccc(F)cc5F)cc4F)c3cc2OC)CC1` (racemic) yielded an IC50 of 170 nM. Work on `CCN1CCN(CCCOc2cc3nccc(Oc4c(F)cc(NC(=O)NN5C(=O)CSC5c5ccccc5F)cc4F)c3cc2OC)CC1` (configuration not stated) yielded an IC50 of 880 nM. In the case of `CCN1CCN(CCCOc2cc3nccc(Oc4c(F)cc(NC(=O)NN5C(=O)CSC5c5c(F)cccc5F)cc4F)c3cc2OC)CC1` (configuration not stated), the IC50 is reported as 270 nM.

Biological target: T2, Tyrosine-protein kinase ABL1 (Homo sapiens, UniProt P00519)
T2 sequence (P00519 whole entry): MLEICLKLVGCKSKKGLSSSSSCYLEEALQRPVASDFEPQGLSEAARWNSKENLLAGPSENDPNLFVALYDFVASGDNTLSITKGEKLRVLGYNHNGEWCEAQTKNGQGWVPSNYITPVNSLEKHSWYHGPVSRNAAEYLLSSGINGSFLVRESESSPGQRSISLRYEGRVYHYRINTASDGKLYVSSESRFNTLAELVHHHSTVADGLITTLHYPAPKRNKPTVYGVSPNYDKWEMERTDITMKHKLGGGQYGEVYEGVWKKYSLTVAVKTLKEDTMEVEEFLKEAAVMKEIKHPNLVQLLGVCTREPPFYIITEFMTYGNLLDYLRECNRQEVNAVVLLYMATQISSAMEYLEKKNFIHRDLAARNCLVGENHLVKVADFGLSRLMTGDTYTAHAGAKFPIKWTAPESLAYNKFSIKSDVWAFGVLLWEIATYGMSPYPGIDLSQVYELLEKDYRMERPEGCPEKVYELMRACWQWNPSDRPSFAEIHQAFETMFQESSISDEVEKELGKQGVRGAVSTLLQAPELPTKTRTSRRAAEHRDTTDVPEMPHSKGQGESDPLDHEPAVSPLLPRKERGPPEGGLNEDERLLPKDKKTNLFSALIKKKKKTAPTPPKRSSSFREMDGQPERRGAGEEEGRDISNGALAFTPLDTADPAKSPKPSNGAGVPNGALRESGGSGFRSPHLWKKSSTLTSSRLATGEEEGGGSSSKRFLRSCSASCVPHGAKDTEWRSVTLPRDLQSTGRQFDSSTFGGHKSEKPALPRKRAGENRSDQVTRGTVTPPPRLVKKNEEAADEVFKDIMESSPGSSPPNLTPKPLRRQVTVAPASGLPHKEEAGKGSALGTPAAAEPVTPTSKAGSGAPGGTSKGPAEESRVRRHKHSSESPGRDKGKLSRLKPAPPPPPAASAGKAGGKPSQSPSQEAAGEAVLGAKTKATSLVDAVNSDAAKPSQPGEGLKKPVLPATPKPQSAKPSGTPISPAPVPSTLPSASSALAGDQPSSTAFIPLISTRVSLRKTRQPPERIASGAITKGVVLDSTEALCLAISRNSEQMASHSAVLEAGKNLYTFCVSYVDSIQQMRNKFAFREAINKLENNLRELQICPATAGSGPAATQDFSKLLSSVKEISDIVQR
Assay: Inhibition of ABL (unknown origin) assessed as residual activity at 1 uM by kinome scan assay relative to control
Settings: not given
`CCN1CCN(CCCOc2cc3nccc(Oc4c(F)cc(NC(=O)NN5C(=O)CSC5c5ccc(F)cc5F)cc4F)c3cc2OC)CC1` (racemic) showed an Activity of 0.25%.

Tested on: NCI-H1993
Assay: cells
Settings: Homo sapiens
With `CCN1CCN(CCCOc2cc3nccc(Oc4c(F)cc(NC(=O)NN5C(=O)CSC5c5ccc(F)cc5F)cc4F)c3cc2OC)CC1` (racemic) the IC50 was 1500 nM. With `CCN1CCN(CCCOc2cc3nccc(Oc4c(F)cc(NC(=O)NN5C(=O)CSC5c5ccccc5F)cc4F)c3cc2OC)CC1` (configuration not stated) the IC50 was 2300 nM.

Tested on: BaF3
Assay: cells
Settings: Mus musculus, BaF3, 72 h
Remark: another data set of the same source
Work on `CCN(CC)CCCOc1cc2nccc(Oc3ccc(NC(=O)NN4C(=O)CSC4c4c(F)cccc4F)cc3C)c2cc1OC` (configuration not stated) yielded an IC50 of 840 nM. With `CCN1CCN(CCCOc2cc3nccc(Oc4c(F)cc(NC(=O)NN5C(=O)CSC5c5ccccc5F)cc4F)c3cc2OC)CC1` (configuration not stated) the IC50 was 88 nM. Compound `CCN1CCN(CCCOc2cc3nccc(Oc4c(F)cc(NC(=O)NN5C(=O)CSC5c5c(F)cccc5F)cc4F)c3cc2OC)CC1` (configuration not stated) has an IC50 of 76 nM.

Tested on: HT-29
Assay: cells
Settings: Homo sapiens
`CCN(CC)CCCOc1cc2nccc(Oc3ccc(NC(=O)NN4C(=O)CSC4c4c(F)cccc4F)cc3C)c2cc1OC` (configuration not stated) gave an IC50 of 220 nM. Compound `CCN1CCN(CCCOc2cc3nccc(Oc4c(F)cc(NC(=O)NN5C(=O)CSC5c5ccc(F)cc5F)cc4F)c3cc2OC)CC1` (racemic) has an IC50 of 530 nM. `CCN1CCN(CCCOc2cc3nccc(Oc4c(F)cc(NC(=O)NN5C(=O)CSC5c5ccccc5F)cc4F)c3cc2OC)CC1` (configuration not stated) gave an IC50 of 110 nM. `CCN1CCN(CCCOc2cc3nccc(Oc4c(F)cc(NC(=O)NN5C(=O)CSC5c5c(F)cccc5F)cc4F)c3cc2OC)CC1` (configuration not stated) gave an IC50 of 69 nM.

Tested on: LoVo
Assay: cells
Settings: Homo sapiens
With `CCN1CCN(CCCOc2cc3nccc(Oc4c(F)cc(NC(=O)NN5C(=O)CSC5c5ccc(F)cc5F)cc4F)c3cc2OC)CC1` (racemic) the IC50 was 1600 nM. `CCN1CCN(CCCOc2cc3nccc(Oc4c(F)cc(NC(=O)NN5C(=O)CSC5c5ccccc5F)cc4F)c3cc2OC)CC1` (configuration not stated) showed an IC50 of 1300 nM. Work on `CCN1CCN(CCCOc2cc3nccc(Oc4c(F)cc(NC(=O)NN5C(=O)CSC5c5c(F)cccc5F)cc4F)c3cc2OC)CC1` (configuration not stated) yielded an IC50 of 930 nM.

Tested on: COLO 205
Assay: cells
Settings: Homo sapiens
`CCN1CCN(CCCOc2cc3nccc(Oc4c(F)cc(NC(=O)NN5C(=O)CSC5c5ccc(F)cc5F)cc4F)c3cc2OC)CC1` (racemic) showed an IC50 of 35 nM. `CCN1CCN(CCCOc2cc3nccc(Oc4c(F)cc(NC(=O)NN5C(=O)CSC5c5ccccc5F)cc4F)c3cc2OC)CC1` (configuration not stated) showed an IC50 of 63 nM. Compound `CCN1CCN(CCCOc2cc3nccc(Oc4c(F)cc(NC(=O)NN5C(=O)CSC5c5c(F)cccc5F)cc4F)c3cc2OC)CC1` (configuration not stated) has an IC50 of 48 nM.

Tested on: HCT-116
Assay: cells
Settings: Homo sapiens
For `CCN(CC)CCCOc1cc2nccc(Oc3ccc(NC(=O)NN4C(=O)CSC4c4c(F)cccc4F)cc3C)c2cc1OC` (configuration not stated), the IC50 was 640 nM. Work on `CCN1CCN(CCCOc2cc3nccc(Oc4c(F)cc(NC(=O)NN5C(=O)CSC5c5ccc(F)cc5F)cc4F)c3cc2OC)CC1` (racemic) yielded an IC50 of 98 nM. Work on `CCN1CCN(CCCOc2cc3nccc(Oc4c(F)cc(NC(=O)NN5C(=O)CSC5c5ccccc5F)cc4F)c3cc2OC)CC1` (configuration not stated) yielded an IC50 of 140 nM. With `CCN1CCN(CCCOc2cc3nccc(Oc4c(F)cc(NC(=O)NN5C(=O)CSC5c5c(F)cccc5F)cc4F)c3cc2OC)CC1` (configuration not stated) the IC50 was 540 nM.

Tested on: not listed separately
Assay: Metabolic stability in human liver microsomes assessed as parent compound remaining at 1 uM measured after 45 mins in presence of NADPH by LC-MS/MS analysis
Assay type: ADME, Microsome
Settings: read-out: Stability
`CCN1CCN(CCCOc2cc3nccc(Oc4c(F)cc(NC(=O)NN5C(=O)CSC5c5ccc(F)cc5F)cc4F)c3cc2OC)CC1` (racemic) gave a remaining at 0.75 h, 1 µM of 82%. `CCN1CCN(CCCOc2cc3nccc(Oc4c(F)cc(NC(=O)NN5C(=O)CSC5c5ccccc5F)cc4F)c3cc2OC)CC1` (configuration not stated) gave a remaining at 0.75 h, 1 µM of 78.2%. `CCN1CCN(CCCOc2cc3nccc(Oc4c(F)cc(NC(=O)NN5C(=O)CSC5c5c(F)cccc5F)cc4F)c3cc2OC)CC1` (configuration not stated) showed a remaining at 0.75 h, 1 µM of 70.1%. For `C[C@]12CC[C@H]3[C@@H](CCC4=CC(=O)CC[C@@]43C)[C@@H]1CC[C@@H]2O` [TESTOSTERONE], the remaining at 0.75 h, 1 µM was 8.1%. For `O=c1ccc2ccc(O)cc2o1` [UMBELLIFERONE], the remaining at 0.75 h, 1 µM was 0.8%.

Biological target: T2, Tyrosine-protein kinase ABL1
Assay: Inhibition of ABL (unknown origin) by kinome scan assay
Settings: not given
For `CCN1CCN(CCCOc2cc3nccc(Oc4c(F)cc(NC(=O)NN5C(=O)CSC5c5ccc(F)cc5F)cc4F)c3cc2OC)CC1` (racemic), the IC50 was 145 nM.
